{
  "source": "patent US4421688A",
  "about": "“Macbecin derivatives” (Takeda Chemical Industries, Ltd., priority 1981, dated 1983)",
  "test": "Acute toxicity, mouse, intraperitoneal",
  "format": "in vivo",
  "data": [
    {"smiles": "COC1c2cc(O)cc(c2O)NC(=O)/C(C)=C/C=C\\C(C)C(OC(N)=O)/C(C)=C/C(C)C(OC)C(O)CC1C", "note": "(centres unmarked) [E-5-R]", "values": [
      {"measurement": "acute toxicity as compared with Macbecin I and II (in words)", "setting": "intraperitoneal, versus Macbecin I and II", "result": "lower toxicity as compared with Macbecin I and II"},
      {"measurement": "acute toxicity (in words)", "setting": "ip", "result": "low toxicity"}
    ]}
  ]
}
